Patent US11497713B2, “Combination taxoid nanoemulsion with immunotherapy in cancer” (TargaGenix, Inc., priority 2017, dated 2022)

How the values were obtained:
PDAC = settings: cited from earlier work
[1] = test system: highly drug resistant tumor xenografts; assay: Highly drug resistant tumor xenografts in mice; settings: mouse, in vivo
[2] = test system: human CFPAC-1 pancreatic tumor xenograft; assay: Human CFPAC-1 pancreatic tumor xenograft efficacy (FIG. 2); format: in vivo, mice; settings: for efficacy as compared to vehicles: CFPAC-1 xenograft
Panc02 cells = assay: Cell viability (MTT assay) in Panc02 cells; format: cell-based, murine; settings: Mus musculus, 96 hours of drug exposure
Protocol: The murine pancreatic cancer cell line Panc02, which is syngeneic to C57Bl/6 mice was a kind gift from Professor Michael A. Hollingsworth, UNMC, Omaha, Nebr. Panc02 cells were grown in 75 cm^2 cell culture flasks and maintained in DMEM medium supplemented with 10% fetal bovine serum (FBS), L-glutamine and penicillin (100 U/ml)/streptomycin (100 μg/ml) (both from Gibco Life Technologies, Carlsbad, Calif., USA). Cells were incubated at 37° C. in a humidified atmosphere containing 5% CO2.
To see cytotoxic effect of different drugs and nanoemulsion formulation, 5000 cells were seeded in each well of the 96-well plate for overnight at 37° C. in a humidified atmosphere containing 5% CO2. Various drugs (Paclitaxel, Abraxane, Gemcitabine and solution and nanoemulsion of DHA-SBT-1214) were diluted at concentrations ranging from 0 nM, 0.01 nM, 0.1 nM, 1 nM, 10 nM, 100 nM, 1000 nM to 10000 nM and Panc02 cells treated with these concentrations for 96 hours. After incubation, cells were treated with 3-(4,5-dimethylthiazol-2-yl)-2,5-diphenyltetrazolium bromide ([…]). MU crystals were dissolved with DMSO and plates were read at 570 nm absorbance using a BioTek Synergy HTX Multi-Mode Microplate Reader.
Cells were seeded at 0.5×10^6 cells/well in 6-well plates for overnight at 37 C in a humidified atmosphere containing 5% CO2. […] The percentage maximal response is shown as a function of anti-cancer agents when administered to Panc02 cells. The cell viability was measured by the MTT assay after 96 hours of incubation at 37° C. Data represent mean±standard deviation (n=3). Significant differences are indicated as follows: *p<0.05, and **p<0.01. The expression level of PD-L1 was determined using flow cytometry as follows. […] The cells were washed once with 3% BSA/PBS and analyzed by flow cytometer on a FACSCalibur flow cytometer and CellQuest™ Pro version 6.0 software (both from Becton-Dickinson and Co.). […]

[3] = test system: PD-L1 surface expression in Panc02 cells; assay: PD-L1 surface protein expression by flow cytometry; format: cell-based, murine; settings: IC50 concentration, 48 hours
Protocol: Cells were seeded at 0.5×10^6 cells/well in 6-well plates for overnight at 37 C in a humidified atmosphere containing 5% CO2. […] The percentage maximal response is shown as a function of anti-cancer agents when administered to Panc02 cells. The cell viability was measured by the MTT assay after 96 hours of incubation at 37° C. Data represent mean±standard deviation (n=3). Significant differences are indicated as follows: *p<0.05, and **p<0.01. The expression level of PD-L1 was determined using flow cytometry as follows. Briefly, cells harvested from in vitro cultures were washed twice with 3% BSA/PBS and then incubated with rat anti-PD-L1 or isotype control antibodies ([…], BioXcell, West Lebanon, N.H., USA) for 30 minutes at 4 C, then washed three times and incubated with anti-rat AlexaFluor 488 conjugated Antibody. The cells were washed once with 3% BSA/PBS and analyzed by flow cytometer on a FACSCalibur flow cytometer and CellQuest™ Pro version 6.0 software (both from Becton-Dickinson and Co.).
Panc02 cells were treated with gemcitabine, Abraxane™, paclitaxel and DHA-SBT-1214 both in solution and nanoemulsion for 48 hours to determine whether they can induce PD-L1 protein expression. PD-L1 expression levels on tumor cells were determined by flow cytometry and is expressed as the A mean fluorescence intensity (ΔMFI; MFI using anti-PD-L1 subtracted from the isotype control). […] PD-L1 expression was analyzed using flow cytometry and is presented as ΔMFI (MFI using anti-PD-L1 subtracted from the isotype control). Data represent the mean±standard deviation of at least 3 independent experiments; *p<0.05, **p<0.01, ***p<0.001. As reported previously, PD-L1 level enhanced in pancreatic tumor tissues compared to in vitro growing cells as shown in FIG. 8.

[4] = test system: human PANC-1 pancreatic tumor xenograft; assay: Human PANC-1 pancreatic tumor xenograft, schedule comparison (FIG. 3); format: in vivo, RPCI SCID mice
From the text: In FIG. 3, this experiment compared a q7d×3 with a q3d×3 schedule for paclitaxel and DHA-SBT-1214 using a human PANC-1 pancreatic tumor xenograft in RPCI SCID mice. […] Paclitaxel was only weakly effective, showing tumor growth delays of 18 days with q7d×3 schedule and 13 days with q3d×3 schedule and no CRs.

[5] = test system: patient-derived PPT2 prostate cancer stem cell xenograft; assay: Patient-derived prostate cancer stem cell (PPT2) xenograft model; format: in vivo, mice; settings: patient-derived prostate CSC xenograft

**Q.** For O=c1[nH]cc(F)c(=O)[nH]1 [5-FU, 5-flurouracil], which median overall survival (PDAC; randomized Phase III trial, gemcitabine versus 5-FU) is on record?
**A.** Its median overall survival is 4.41 months.

**Q.** What does the source list for CC/C=C\C/C=C\C/C=C\C/C=C\C/C=C\C/C=C/CCC(=O)O[C@@H](C(=O)O[C@H]1C[C@@]2(O)[C@@H](OC(=O)c3ccccc3)C3[C@](C)(C(=O)[C@H](OC(C)=O)C(=C1C)C2(C)C)[C@@H](O)C[C@H]1OC[C@@]31OC(C)=O)[C@@H](NC(=O)c1ccccc1)c1ccccc1 (stereo partly shown) [DHA-paclitaxel]?
**A.** efficacy [1]: do not show meaningful activity; efficacy as compared to vehicles [2]: only minor tumor growth delay

**Q.** With CC(=O)O[C@@]12CO[C@@H]1C[C@H](O)[C@@]1(C)C(=O)[C@H](OC(=O)C3CC3)C3=C(C)[C@@H](OC(=O)[C@H](O)[C@H](C=C(C)C)NC(=O)OC(C)(C)C)C[C@@](O)([C@@H](OC(=O)c4ccccc4)[C@H]21)C3(C)C [SBT-1214] as the compound, how does the weight loss ([2]; 120 mg/kg total dose, until day 20) read?
**A.** Its weight loss is < 4%.

**Q.** Which results are given for CC(=O)O[C@H]1C(=O)[C@@]2(C)[C@H]([C@H](OC(=O)c3ccccc3)[C@]3(O)C[C@H](OC(=O)[C@H](O)[C@@H](NC(=O)c4ccccc4)c4ccccc4)C(C)=C1C3(C)C)[C@]1(OC(C)=O)CO[C@@H]1C[C@@H]2O [paclitaxel, reference compound]?
**A.** efficacy [1]: do not show meaningful activity; IC50 (Panc02 cells): 443 nM; PD-L1 surface expression (ΔMFI) [3]: upregulated; efficacy as compared to vehicles [2]: only minor tumor growth delay; complete responses (CRs) ([4]; PANC-1 xenograft): no CRs; tumor growth delay ([4]; q3d×3 schedule): 13 days; tumor growth delay ([4]; q7d×3 schedule): 18 days; efficacy (tumor growth, survival) [5]: completely ineffective

**Q.** With FOLFIRINOX as the compound, how does the median survival (PDAC; Phase III clinical trial of FOLFIRINOX) read?
**A.** The median survival was 11.1 months.
